Assay results as given in patent US20100099756A1, “USES OF INCENSOLE, INCENSOLE ACETATE AND DERIVATIVES THEREOF” (YISSUM RESEARCH DEVELOPMENT COMPANY OF THE HEBREW …, priority 2006, published 2010).
pEC50: −log10 of the molar value.

Assays:
[1] = tested on: inflamed paw; assay: Inflamed paw model (carrageenin) in mice; type: in vivo, Sabra female mice
Description: IA (50 mg/kg) or vehicle were injected i.p. to Sabra female mice (5 per group) 30 min before induction of the inflammatory stimulus. Hind paws were then injected with 50 μl of saline or λ-carrageenin (4%). Ensuing inflammatory swelling was measured by increase in foot volume in a plethysmometer. […] There were highly significant effects of treatment (F=11.7, df=3.64, P<0.001). *, different from IA +saline, P<0.05; **, ***, different from vehicle+saline at P<0.01, P<0.001 respectively; #, different from vehicle+carrageenin, P<0.05.
Inflamed Paw Model. Sabra female mice were used to assess the response to IA or vehicle in an in vivo model of inflammation. Drug or vehicle was administered 30 min before induction of the inflammatory stimulus. Mice (5 per group) were injected i.p. with vehicle (isopropanol:Emulphor:saline=1:1:18) or with vehicle containing IA (50 mg/kg, i.p). Emulphor (a polyethoxylated vegetable oil) is a commercial emulsifier. Hind paws were injected with 50 μl of saline (left or right alternatively) or λ-carrageenin (4%, right or left alternatively), using 26G needles. Ensuing inflammatory swelling was measured by increase in foot volume in a plethysmometer (Ugo-Basile, Italy). Paw volume as well as redness (as a measure of erythema) and licking (as a measure of pain) were assayed before carrageenin application and every 60 min until 4 hrs.

[2] = tested on: IκBα degradation; assay: IκBα degradation in TNFα-stimulated HeLa cells (Western blot); type: cell-based; conditions: HeLa cells pre-incubated 2 hrs, then TNFα 20 ng/ml for 20 minutes
Description: HeLa cells were pre-incubated with IA (FIG. 1A) or IN (FIG. 1B) at the indicated concentrations for 2 hrs prior to 20 minutes exposure to TNFα (20 ng/ml). At least three more experiments were repeated with highest indicated dose, resulting similarly.
IκBα Degradation. HeLa cells were pre-incubated with IA (50 μg/ml, dissolved in ethanol) for 2 hrs, and then stimulated for 20 minutes with TNFα (20 ng/ml, Emeryville, Calif., USA). After removing the slides from plates for immonostaining (see below), proteins were extracted from remaining cells in the plates. Proteins were extracted from cells in NP-40 lysis buffer. Total protein concentration was determined using the Bradford method. Lysates were then analyzed either by Western blotting (WB).
Western Blot (WB). Following separation by SDS-PAGE, proteins were blotted to a polyvinylidene difluoride (PVDF) membrane (Millipore). The membrane was blocked in 5% (w/v) milk powder and then incubated in TBST containing the primary antibody and 2% (w/v) milk powder. All phospho-specific antibodies were purchased from Cell signaling Inc. αIκBa, αp65 and αCOX2 antibodies from Santa Cruz Inc. (California, USA). After binding of an appropriate secondary antibody coupled to horseradish peroxidase, proteins were visualized by enhanced chemiluminiscence according to the instructions of the manufacturer (Amersham Lifescience).

[3] = molecular target: T1, mouse TRPV3-YFP (Mus musculus, UniProt Q8K424); assay: Calcium imaging of HEK293 cells expressing mouse TRPV3-YFP; type: cell-based
T1 construct: expressed in transfected cells
T1 sequence (Q8K424 1-791): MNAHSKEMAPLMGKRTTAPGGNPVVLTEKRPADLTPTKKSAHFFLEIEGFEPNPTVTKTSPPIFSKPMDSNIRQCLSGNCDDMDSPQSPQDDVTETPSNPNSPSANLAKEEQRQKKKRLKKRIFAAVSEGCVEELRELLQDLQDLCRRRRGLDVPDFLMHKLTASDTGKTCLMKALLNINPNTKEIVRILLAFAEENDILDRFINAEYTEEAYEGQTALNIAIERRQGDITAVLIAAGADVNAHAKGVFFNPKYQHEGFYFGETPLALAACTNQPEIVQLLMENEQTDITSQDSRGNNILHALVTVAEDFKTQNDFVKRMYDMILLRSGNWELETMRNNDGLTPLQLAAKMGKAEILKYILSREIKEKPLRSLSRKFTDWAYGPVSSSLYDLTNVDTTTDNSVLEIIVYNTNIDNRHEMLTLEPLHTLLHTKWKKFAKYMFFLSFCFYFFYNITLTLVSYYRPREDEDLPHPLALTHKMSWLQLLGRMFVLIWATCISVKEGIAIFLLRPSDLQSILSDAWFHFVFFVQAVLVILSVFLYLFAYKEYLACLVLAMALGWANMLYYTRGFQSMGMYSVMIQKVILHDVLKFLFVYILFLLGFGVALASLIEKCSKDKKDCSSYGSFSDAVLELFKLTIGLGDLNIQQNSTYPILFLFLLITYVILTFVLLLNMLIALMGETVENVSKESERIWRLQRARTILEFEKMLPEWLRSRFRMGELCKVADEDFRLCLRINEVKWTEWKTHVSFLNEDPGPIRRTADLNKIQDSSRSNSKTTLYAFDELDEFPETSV
Description: All error bars indicate SEM; p values in all subfigures but c represent analysis with one-way ANOVA Bonferroni's post hoc.
TRPV3-YFP [O'dell, D. K., Rimmerman, N., Pickens, S. R. & Walker J. M. Fatty acyl amides of endogenous tetrahydroisoquinolines are active at the recombinant human TRPV1 receptor. […] Med. Chem. 15, 6164-6169 (2007)], TRPV4 and mock-transfected cell lines were cultured in DMEM 1× with L-glutamine (Mediatech, Inc. Herndon, Va.), containing 1% penicillin-streptomycin (Invitrogen, Carlsbad, Calif.) and 10% foetal bovine serum.
Calcium imaging of HEK 293 cells. TRPV1, TRPV3, and TRPV4 expressing HEK293 cells were plated 24-48 h before imaging in 96 well plates, loaded with 3 μM Fura-2 AM and imaged as previously described [O'dell, D. K., Rimmerman, N., Pickens, S. R. & Walker J. M. Fatty acyl amides of endogenous tetrahydroisoquinolines are active at the recombinant human TRPV1 receptor. […] Med. Chem. 15, 6164-6169 (2007)].
For single cell calcium imaging, HEK293-rat TRPV2 and HEK293-mouse TRPV3-YFP expressing cells were plated on collagen-coated glass cover slips. Cells were loaded for 60 min with 3 μM Fura-2 AM.
Data analysis of calcium imaging data. Analysis of calcium imaging data was done using a non-linear regression curve fit (Graphpad 4 Prism, San Diego, Calif.). t tests and one way ANOVA were calculated using SPSS (Chicago, Ill.). In the keratinocyte experiments, drug-induced response for each cell was taken as the maximal post-drug measurements over time minus the average of the last 5 pre-drug measurements. Averaged drug responses over 30 randomly selected cells per coverslip were analyzed with two-tailed unpaired t tests.

SMILES: CC(=O)OC1CC/C(C)=C/CC/C(C)=C/CC2(C(C)C)CCC1(C)O2 (stereo not shown) [IA, incensole acetate]
- inflammation (inflamed paw volume) ([1]; 50 mg/kg i.p. 30 min before carrageenin, 4 hrs period): significantly reduced inflammation
- other inflammatory parameters, such as redness and pain ([1]; 50 mg/kg i.p., data not shown): significantly reduced
- IκBα degradation [2]: inhibited IκBα degradation in a dose dependent manner
- calcium influx vs vehicle ([3]; IA 100 μM, 2-APB positive control): significantly increased calcium influx
- calcium influx Hill slope ([3]; calcium in the extracellular media): 2.2
- pEC50 ([3]; calcium in the extracellular media, read-out: calcium influx EC50): 4.80
- calcium increase with calcium removed from the extracellular medium ([3]; no extracellular calcium): significantly reduced
